Here are results for twelve molecules from patent publication US20100041704A1, “DERMAL COMPOSITIONS OF SUBSTITUTED AMIDES AND THE USE THEREOF AS MEDICATION FOR PAIN AND PRURITUS” (priority 2007, published 2010).

Data set [1] in a line: saturation solubility in topical solvents/penetration enhancers. The format is physicochemical. The method, then:
Melting point ranges were determined with a capillary apparatus (Stuart) using a heating rate of 1° C./min. Moisture was measured using Karl Fischer titration (Schott TitroLine KF). Solubility was measured by adding an excess of solid to the solvent and allowing this suspension to equilibrate at 19-21° C. for at least 24 hours. […]
Solubility was measured by adding an excess of solid to the solvent and allowing this suspension to equilibrate at 19-21° C. for at least 24 hours. […]

Data set [2] has as its system New Zealand White rabbits (skin). Description: dermal irritation studies. In kind it is in vivo, rabbit. Particulars: DMSO at lower concentrations (<90%) in combination with bupivacaine or ropivacaine. The method, then: Dermal irritation studies are performed in male and female New Zealand White rabbits (Harlan). This albino rabbit is recommended as the preferred species because of its size, skin permeability and extensive database. The number of animals being used in these studies is consistently increasing as new compositions are tested and previously tested compositions are being retested as references. Within 24 hours before the initiation of the test, fur is removed from the upper and lower dorsal trunks by clipping. Care is taken to avoid abrading the skin and only animals with healthy intact skin are being used. Histamine is used as the pruritic irritant. The compositions to be tested are applied to the skin of the animals for 60 min (±5 min). The new compositions, with or without bupivacaine 5 to 10 percent, are applied on 6-ply gauze pads (4.5 cm×4.5 cm) and held in place with Tegaderm® dressing for the entire exposure duration. After the exposure period, residual test article is removed with water or other appropriate solvent, without altering the existing response or the integrity of the epidermis. Prior to dosing and repeatedly post dosing, dermal irritation is scored for erythema/eschar and edema.

A short description of data set [3]: ternary solvent mixtures with water as anti-solvent. In kind it is physicochemical. Particulars: 1 ml polyethylene glycol + 1 ml ethanol, presence of 0.6 ml water.
For data set [4], the system named is sciatic nerve. Nature of the data set: sciatic nerve block in the rat, duration by algesimeter. Particulars: for duration of sensory nerve block / local anesthesia: injection of 0.5% solution, N=10-12. The format is in vivo.
Data set [5] relates to nerve ligation model in the rat (L5 and L6 spinal roots of the sciatic nerve). Description: nerve ligation model of neuropathic pain in the rat (tail flick, pinprick allodynia). In kind it is in vivo. Particulars: for activity in animal model of neuropathic pain: rat nerve ligation model.
In data set [6] the test system is guinea pigs (dermal anesthesia). Nature of the data set: potentiation study: dermal anesthesia in guinea pigs, pinprick methodology. In kind it is in vivo. Particulars: guinea pigs N=8.
Data set [7] concerns human leukocytes (buffy coat). Description: inhibition of A23187-stimulated histamine release from human leukocytes. In kind it is cell-based. Particulars: A23187 5 μM, 20 min/37° C. The method, then: In the present studies, histamine was the marker compound for algesic mediators that are released into the tissues of patients suffering from neuropathic pain. The inhibition of stimulated histamine release from human leukocytes (buffy coat) by test articles was studied. Leukocytes were obtained from healthy volunteers and histamine release was induced by incubation (20 min/37° C.) with the calcium ionophore A23187 (5 μM) in the presence or absence of a test article. Histamine was analyzed by enzyme-immuno assays, using commercially available kits and a microplate reader (MRX, Dynatech).

Data set [8] relates to mice with diet-induced pruritus. Nature of the data set: pruritus model: mice fed diet low in Mg2+ and Zn2+, scratching. Particulars: mouse, in vivo.
A short description of data set [9]: saturation solubility in pentane (model propellant). Particulars: base. The format is physicochemical. The text has this:
In addition to the solubility experiments shown above, the solubilities of bupivacaine and ropivacaine were also investigated using pentane since this is a low molecular weight hydrocarbon, commonly used to model a GRAS (generally recognized as safe) aerosol propellant such as butane.

For data set [10] the following is noted: concentrations up to 0.075 percent (Mason L et al. 2004); cited from earlier work.
Where [11] appears, read: in ethanol, 19-21° C., at least 24 hours, HPLC.
[12] abbreviates: in hexylene glycol, 19-21° C., at least 24 hours, HPLC.
[13] abbreviates: in isopropyl alcohol, 19-21° C., at least 24 hours, HPLC.
The mark [14] stands for this setting: in propylene glycol, 19-21° C., at least 24 hours, HPLC.
Where [15] appears, read: in diisopropyl adipate, 19-21° C., at least 24 hours, HPLC.
[16] abbreviates: in isopropyl myristate, 19-21° C., at least 24 hours, HPLC.

Each structure is given as a SMILES string. Structures can show the parent of a compound that is named as a salt.

With `CCCCN1CCCCC1C(=O)Nc1c(C)cccc1C.Cl.O` (racemic) [Racemic HCl monohydrate], the “Solubility of bupivacaine (% w/w)” value in data set [1] (setting [11]) worked out at 4.3 % w/w; in data set [1] (setting [12]), 2.1 % w/w; in data set [1] (setting [13]) it was 0.5 % w/w; in [1] (setting [14]), 3.2 % w/w.

`CCCCN1CCCCC1C(=O)Nc1c(C)cccc1C` (racemic) [Racemic free base]: the “Solubility of bupivacaine (% w/w)” value in data set [1] (setting [15]) came to 6.2 % w/w; in data set [1] (setting [11]), 36.8 % w/w; in [1] (setting [12]) it was 17.8 % w/w; in data set [1] (setting [13]) it was 20.5 % w/w; in [1] (setting [16]), 3.5 % w/w; in [1] (setting [14]), 4.8 % w/w.

With `CCCCN1CCCC[C@H]1C(=O)Nc1c(C)cccc1C` (single isomer, unassigned) [Isomer HCl monohydrate], in data set [1] (in ethanol, determined gravimetrically), the “Solubility of bupivacaine (% w/w)” value is reported as 3.8-4.4^1 % w/w.

Regarding `CCCCN1CCCC[C@H]1C(=O)Nc1c(C)cccc1C` (single isomer, unassigned) [Isomer free base], the “Solubility of bupivacaine (% w/w)” value was determined as 2.7 % w/w in [1] (setting [15]); 16.5 % w/w in [1] (setting [11]); 8.0 % w/w in data set [1] (setting [12]); 8.9 % w/w in data set [1] (setting [13]); 1.6 % w/w in [1] (setting [16]); 2.1 % w/w in data set [1] (setting [14]).

As for `C[S+](C)[O-]` [DMSO, Dimethyl sulfoxide], the “dermal irritation of DMSO with local anesthetic” value in data set [2] is recorded as “do not cause increased dermal irritation”.

With `CCCN1CCCC[C@H]1C(=O)Nc1c(C)cccc1C` [S-ropivacaine free base], the “Solubility, % w/w” value stood at 1.7 % w/w in data set [1] (S-ropivacaine free base in diisopropyl adipate, 19-21° C., at least 24 hours); 10.0 % w/w in data set [1] (S-ropivacaine free base in ethanol, 19-21° C., at least 24 hours); 5.1 % w/w in data set [1] (S-ropivacaine free base in hexylene glycol, 19-21° C., at least 24 hours); 5.2 % w/w in data set [1] (S-ropivacaine free base in isopropyl alcohol, 19-21° C., at least 24 hours); 0.9 % w/w in [1] (S-ropivacaine free base in isopropyl myristate, 19-21° C., at least 24 hours); 1.6 % w/w in data set [1] (S-ropivacaine free base in propylene glycol, 19-21° C., at least 24 hours). In addition, the “solubility compared with bupivacaine free base” value in [1] (all solvents of Table 6) is “consistently lower”. The “solubility in ternary solvent mixture with water as anti-solvent” value in [3] is listed as “dramatically decreased”.

Regarding `CCCCN1CCCCC1C(=O)Nc1c(C)cccc1C` (stereo not shown) [bupivacaine HCl], in data set [4] (injection of 0.25% solution, algesimeter (5 gram), rat), the “duration of sensory nerve block” value stood at 70 ± 5 min. In addition, the “duration of sensory nerve block / local anesthesia” value in [4] (algesimeter (5 gram), rat) is 99 ± 7 min.

Regarding `CCCCN1CCCCC1C(=O)Nc1c(C)cccc1C` (stereo not shown) [bupivacaine, RS—N-(2,6-dimethylphenyl)-1-butylpiperidine-2-carboxamide], the “duration of analgesic activity compared with lidocaine” value in [5] (neuropathic pain model, single administration) was “longer duration than that offered by lidocaine”. For the same molecule, the “pain relief after repeated administrations” value in [5] (repeated administrations) is on record as “long-lasting (days not hours) pain relief”. In addition, the “anti-allodynic effect (paw withdrawal, pinprick)” value in data set [5] (single systemic administration (0.5%), algesimeter set at 5 grams) is reported as “prolonged anti-allodynic effect”. The “analgesia, tail-flick test method” value in [5] (single systemic administration of bupivacaine (0.5%) three days after nerve ligation, tail flick in warm (140° F.) water) amounted to 100%. Also, the “dose causing motor nerve blocks after injections” value in data set [4] (after injections, doses as low as) was ≥ 0.1%. Also, in [6] (5% in DMSO/water in a dermal patch, applied for 60 min, pinprick), the “duration of dermal anesthesia” value is 60 ± 5 min. In data set [7], the “inhibition of stimulated histamine release” value is “significant inhibitory activity” and the “potency on histamine release compared with lidocaine” value was “more potent than lidocaine”. Moreover, the “antipruritic activity / safety and efficacy in animal model of pruritus” value in data set [8] is “antipruritic activity”. The “Saturation solubility in pentane” value in data set [9] is recorded as >0.1%.

In the case of `COc1cc(CNC(=O)CCCC/C=C/C(C)C)ccc1O` [capsaicin], in data set [6] (capsaicin alone, low dose), the “dermal anesthesia (in words)” value is given as “too low to result in measurable dermal anesthesia”. Moreover, in data set [10], the “efficacy of dermal capsaicin” value is listed as “only marginally effective”.

For the molecule `CCN(CC)CC(=O)Nc1c(C)cccc1C` [lidocaine], in data set [5], the “activity in animal model of neuropathic pain” value is listed as “had activity”. Besides, the “duration of sensory nerve block / local anesthesia” value in [4] (algesimeter (5 gram), rat) is on record as “approximately 40 min”.

Take `Cc1cccc(C)c1NC(=O)C1CCCCN1C` (stereo not shown) [mepivacaine]: the “duration of sensory nerve block / local anesthesia” value in [4] (algesimeter (5 gram), rat) is listed as “approximately 40 min”.

As to `CCCN1CCCCC1C(=O)Nc1c(C)cccc1C` (stereo not shown) [ropivacaine, RS—N-(2,6-dimethylphenyl)-1-propylpiperidine-2-carboxamide], the “activity in animal model of neuropathic pain” value in [5] is listed as “had activity”. Further, the “antipruritic activity / safety and efficacy in animal model of pruritus” value in data set [8] is reported as “antipruritic activity”. The “Saturation solubility in pentane” value in [9] is on record as >0.1%.
